# According to patent US20260242395A1, “AMINOHETEROARYL KINASE INHIBITORS” (ALLORION THERAPEUTICS INC, priority 2022, published 2026):
# pIC50: −log10 of the molar value.
# Legend:
# Type in all cases: biochemical
# CDK6/CyclinD3 = target: T1, CDK6/CyclinD3 (Homo sapiens, UniProt Q00534); experiment: CDK6/CyclinD3 kinase inhibitory activity (Caliper mobility shift); conditions: enzyme 15 nM, ATP 800 μM, 28° C. 30 min; read-out: CDK6/Cyclin D3 IC50
# T1 construct: purchased Carna 04-107
# Outline: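 Compound preincubated 10 min at room temperature with CDK6/CyclinD3 (15 nM final) in HEPES pH 7.5/MgCl2/DTT buffer; reaction with 5-FAM peptide (3000 nM) and ATP 800 μM, 30 min at 28°C, stopped with EDTA. Substrate/product separated by microfluidic mobility shift; % conversion converted to % inhibition, IC50 from dose-response curves.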
# CDK9/CyclinT1 = target: T2, CDK9/CyclinT1 (Homo sapiens, UniProt P50750); experiment: CDK9/CyclinT1 kinase inhibitory activity (Caliper mobility shift); conditions: enzyme 12.5 nM, ATP 10M, 28° C. 30 min; read-out: CDK9/Cyclin T1 IC50
# T2 construct: purchased Millipore 14-685M
# T2 sequence (P50750 whole entry): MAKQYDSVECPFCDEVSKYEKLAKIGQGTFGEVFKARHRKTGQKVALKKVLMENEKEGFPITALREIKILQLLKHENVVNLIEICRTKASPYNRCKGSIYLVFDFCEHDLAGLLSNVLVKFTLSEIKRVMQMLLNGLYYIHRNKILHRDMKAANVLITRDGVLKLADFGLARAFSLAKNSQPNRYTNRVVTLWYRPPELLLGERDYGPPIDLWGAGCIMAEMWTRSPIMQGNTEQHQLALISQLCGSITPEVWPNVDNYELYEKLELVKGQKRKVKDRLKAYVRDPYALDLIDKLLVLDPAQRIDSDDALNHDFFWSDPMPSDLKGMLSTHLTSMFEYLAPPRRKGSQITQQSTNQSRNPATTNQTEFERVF
# T2 sequence (O60563 whole entry partner): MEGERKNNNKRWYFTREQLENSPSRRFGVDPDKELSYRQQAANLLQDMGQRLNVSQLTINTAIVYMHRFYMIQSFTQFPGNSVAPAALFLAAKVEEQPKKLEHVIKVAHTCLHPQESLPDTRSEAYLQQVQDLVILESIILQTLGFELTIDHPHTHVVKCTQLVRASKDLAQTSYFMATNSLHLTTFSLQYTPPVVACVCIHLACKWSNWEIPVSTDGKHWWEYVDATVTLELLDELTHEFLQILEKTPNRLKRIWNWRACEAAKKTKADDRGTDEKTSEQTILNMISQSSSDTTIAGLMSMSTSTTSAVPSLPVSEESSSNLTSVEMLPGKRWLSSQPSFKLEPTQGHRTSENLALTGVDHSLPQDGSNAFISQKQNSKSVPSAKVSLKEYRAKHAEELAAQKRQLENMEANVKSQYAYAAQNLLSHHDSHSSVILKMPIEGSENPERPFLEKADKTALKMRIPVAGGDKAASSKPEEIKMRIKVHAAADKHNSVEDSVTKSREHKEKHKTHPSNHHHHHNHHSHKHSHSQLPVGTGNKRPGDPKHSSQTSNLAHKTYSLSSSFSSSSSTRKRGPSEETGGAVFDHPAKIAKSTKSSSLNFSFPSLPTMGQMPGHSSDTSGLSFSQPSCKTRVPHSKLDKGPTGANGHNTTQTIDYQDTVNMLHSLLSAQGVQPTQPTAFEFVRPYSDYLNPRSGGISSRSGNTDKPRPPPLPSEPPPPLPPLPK
# Experimental: CDK9/CyclinT1 kinase inhibitory activity (IC50): 5 μl of various dilutions of test compound in 1× kinase buffer (20 mM HEPES, pH 7.5, 10 mM MgCl2, 2 mM DTT and 0.01% Triton X-100) was mixed with 10 μL of CDK9/CyclinT1 (Millipore, 14-685M #, final concentration 12.5 nM in 1× Kinase buffer) in 384 plates and incubated at room temperature for 10 min. To initiate each reaction, 10 μL of peptide solution containing fluorescently-labeled -peptide CTD3 (5-FAM-[…], GL, SY346885 #, final concentration 3000 nM) and ATP (final concentration […]) in 1× Kinase buffer was added to each of the wells containing test compound and CDK9/CyclinT1 mixture. The reaction is then allowed to proceed at 28° C. for 30 min and terminated by the addition of 25 μL stop buffer (100 mM HEPES pH 7.5, 50 mM EDTA, 0.2% Coating Reagent #3 (Perkin Elmer, 760050 #) and 0.015% Brij-35).
# (§1) Following the kinase reaction, Caliper EZ reader II (Downstream voltages: −500V, Upstream voltages: −2250V, Base pressure −0.5 PSI, Screen pressure −1.2 PSI) was used to separate the phosphorylated (product) and the unphosphorylated (substrate) fluorescently-labeled peptide CTD3 based on their different mobility. Both substrate and product were measured and the ratio of these values were used to generate % conversion by Caliper EZ reader II. These conversion values were then transformed into % inhibition of kinase activity using the formula: % Inhibition=[(MA−X)/(MA−MI)]×100% where MA=conversion value of DMSO only controls, MI=conversion value of no enzyme controls and X=conversion value at any given compound dose. IC50 values were then calculated by plotting dose-response curves and then using the XLfit application in Excel software.
# CDK1/CyclinB = target: T3, CDK1/CyclinB (Homo sapiens, UniProt P06493); experiment: CDK1/CyclinB kinase inhibitory activity (Caliper mobility shift); conditions: enzyme 3 nM, ATP 20 μM, 28° C. 30 min; read-out: CDK1/Cyclin B1 IC50
# T3 construct: purchased Millipore 14-450M
# T3 sequence (P06493 whole entry): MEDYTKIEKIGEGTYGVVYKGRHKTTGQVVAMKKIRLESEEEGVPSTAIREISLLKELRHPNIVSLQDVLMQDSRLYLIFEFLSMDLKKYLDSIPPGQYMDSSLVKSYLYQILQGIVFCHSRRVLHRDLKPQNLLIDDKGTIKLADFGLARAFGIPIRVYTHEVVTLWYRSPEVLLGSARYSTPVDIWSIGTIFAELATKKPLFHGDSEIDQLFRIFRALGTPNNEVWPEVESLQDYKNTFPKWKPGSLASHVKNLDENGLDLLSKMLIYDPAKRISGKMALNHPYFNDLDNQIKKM
# T3 sequence (P14635 whole entry partner): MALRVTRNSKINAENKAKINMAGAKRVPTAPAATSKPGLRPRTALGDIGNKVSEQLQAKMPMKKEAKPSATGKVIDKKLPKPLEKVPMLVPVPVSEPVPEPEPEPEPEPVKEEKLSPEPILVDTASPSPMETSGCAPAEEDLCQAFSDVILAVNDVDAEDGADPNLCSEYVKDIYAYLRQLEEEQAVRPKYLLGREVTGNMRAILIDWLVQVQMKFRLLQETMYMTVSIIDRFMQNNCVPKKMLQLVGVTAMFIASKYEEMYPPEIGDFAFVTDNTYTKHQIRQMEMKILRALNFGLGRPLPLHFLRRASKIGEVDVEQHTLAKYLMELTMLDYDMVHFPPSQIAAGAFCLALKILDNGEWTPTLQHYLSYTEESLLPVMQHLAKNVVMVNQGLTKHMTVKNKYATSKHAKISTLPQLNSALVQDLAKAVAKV
# Experimental: CDK1/CyclinB kinase inhibitory activity (IC50): 5 μl of various dilutions of test compound in 1× kinase buffer (50 mM HEPES pH 7.5, 10 mM MgCl2, 2 mM DTT and 0.01% Brij-35) was mixed with 10 μL of CDK1/CyclinB (Millipore, 14-450M #, final concentration 3 nM in 1× Kinase buffer) in 384 plates and incubated at room temperature for 10 min. To initiate each reaction, 10 μL of peptide solution containing fluorescently-labeled-peptide 18(5-FAM-QSPKKG-CONH2) (GL, 114202 #, final concentration 3000 nM) and ATP (final concentration 20 μM) in 1× Kinase buffer was added to each of the wells containing test compound and CDK1/CyclinB mixture. The reaction is then allowed to proceed at 28° C. for 30 min and terminated by the addition of 25 μL stop buffer (100 mM HEPES pH 7.5, 50 mM EDTA, 0.2% Coating Reagent #3 (Perkin Elmer, 760050 #) and 0.015% Brij-35).
# as §1, with “18” for “CTD3”
# T1 sequence (Q00534 whole entry): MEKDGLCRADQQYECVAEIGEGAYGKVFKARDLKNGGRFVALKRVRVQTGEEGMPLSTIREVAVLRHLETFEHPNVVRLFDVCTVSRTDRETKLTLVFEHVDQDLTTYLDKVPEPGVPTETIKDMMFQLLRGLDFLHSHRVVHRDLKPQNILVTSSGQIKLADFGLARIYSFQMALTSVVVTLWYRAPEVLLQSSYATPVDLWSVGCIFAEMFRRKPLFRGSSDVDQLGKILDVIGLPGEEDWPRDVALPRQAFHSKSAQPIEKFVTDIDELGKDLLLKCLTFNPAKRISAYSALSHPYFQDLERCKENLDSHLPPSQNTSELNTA
# T1 sequence (P30281 whole entry partner): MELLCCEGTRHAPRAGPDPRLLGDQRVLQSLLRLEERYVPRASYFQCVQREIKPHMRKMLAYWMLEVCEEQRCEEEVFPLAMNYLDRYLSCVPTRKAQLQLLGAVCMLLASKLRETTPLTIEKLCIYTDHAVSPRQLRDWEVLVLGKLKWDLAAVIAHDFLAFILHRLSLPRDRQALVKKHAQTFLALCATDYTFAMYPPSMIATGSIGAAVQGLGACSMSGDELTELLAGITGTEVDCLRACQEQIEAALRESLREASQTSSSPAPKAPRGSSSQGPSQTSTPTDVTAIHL
SMILES,pIC50 (CDK6/CyclinD3),pIC50 (CDK9/CyclinT1),pIC50 (CDK1/CyclinB)
"CC1Cc2cnc3c(F)cc(-c4nc(N[C@@H]5CCOC[C@H]5O)ncc4Cl)cc3c2CN1 (single isomer, unassigned) [Example 34b]",6.00 to 7.00,6.00 to 7.00,≤ 6.00
"Cc1nc2c(F)cc(-c3nc(N[C@@H]4CCOC[C@H]4O)ncc3Cl)cc2c(Cl)c1C(C)O (single isomer, unassigned) [Example 35b]",6.00 to 7.00,≤ 6.00,≤ 6.00
"CC(O)c1cnc2c(F)cc(-c3nc(N[C@@H]4CCOC[C@H]4O)ncc3Cl)cc2c1Cl (single isomer, unassigned) [Example 40a]",6.00 to 7.00,6.00 to 7.00,–
"CNC(C)c1cc2cc(-c3nc(N[C@@H]4CCOC[C@H]4O)ncc3Cl)cc(F)c2nc1C (single isomer, unassigned) [Example 45a]",6.00 to 7.00,6.00 to 7.00,6.00 to 7.00
"CNC(C)c1cc2cc(-c3nc(N[C@@H]4CCOC[C@H]4O)ncc3Cl)cc(F)c2nc1C (single isomer, unassigned) [Example 45b]",6.00 to 7.00,≤ 6.00,≤ 6.00
"Cc1nc2c(F)cc(-c3nc(N[C@@H]4CCOC[C@H]4O)ncc3Cl)cc2cc1C1CCCN1 (single isomer, unassigned) [Example 57a]",6.00 to 7.00,6.00 to 7.00,6.00 to 7.00
"Cc1c(C(C)NC2CC2)cnc2c(F)cc(-c3nc(N[C@@H]4CCOC[C@H]4O)ncc3Cl)cc12 (single isomer, unassigned) [Example 91b]",6.00 to 7.00,≤ 6.00,≤ 6.00
"CC(C)(O)c1cnc2c(F)cc(-c3nc(N[C@@H]4CCOC[C@H]4O)ncc3Cl)cc2c1 [Example 1, (3S,4R)-4-((5-chloro-4-(8-fluoro-3-(2-hydroxypropan-2-yl)quinolin-6-yl)pyrimidin-2-yl)amino)tetrahydro-2H-pyran-3-ol]",6.00 to 7.00,≤ 6.00,≤ 6.00
"Cc1nc2c(F)cc(-c3nc(N[C@@H]4CCOC[C@H]4O)ncc3Cl)cc2cc1C(C)(C)O [Example 5, (3S,4R)-4-((5-chloro-4-(8-fluoro-3-(2-hydroxypropan-2-yl)-2-methylquinolin-6-yl)pyrimidin-2-yl)amino)tetrahydro-2H-pyran-3-ol]",6.00 to 7.00,6.00 to 7.00,≤ 6.00
"O[C@@H]1COCC[C@H]1Nc1ncc(Cl)c(-c2cc(F)c3ncc4c(c3c2)CNCC4)n1 [Example 9, (3S,4R)-4-((5-chloro-4-(7-fluoro-1,2,3,4-tetrahydrobenzo[c][2,6]naphthyridin-9-yl)pyrimidin-2-yl)amino)tetrahydro-2H-pyran-3-ol]",6.00 to 7.00,6.00 to 7.00,6.00 to 7.00
"CC(C)n1c(C(C)(C)O)nc2c(F)cc(-c3cc(N[C@@H]4CCOC[C@H]4O)ncc3Cl)cc21 [Example 12, (3S,4R)-4-((5-chloro-4-(4-fluoro-2-(2-hydroxypropan-2-yl)-1-isopropyl-1H-benzo[d]imidazol-6-yl)pyridin-2-yl)amino)tetrahydro-2H-pyran-3-ol]",6.00 to 7.00,6.00 to 7.00,≤ 6.00
"CC(C)(N)c1cnc2c(F)cc(-c3nc(N[C@@H]4CCOC[C@H]4O)ncc3Cl)cc2c1 [Example 14, (3S,4R)-4-((4-(3-(2-aminopropan-2-yl)-8-fluoroquinolin-6-yl)-5-chloropyrimidin-2-yl)amino)tetrahydro-2H-pyran-3-ol]",6.00 to 7.00,6.00 to 7.00,7.00 to 8.00

# The remaining lines, values ahead:
pIC50 (CDK6/CyclinD3),pIC50 (CDK9/CyclinT1),pIC50 (CDK1/CyclinB),SMILES
7.00 to 8.00,6.00 to 7.00,6.00 to 7.00,"Cc1nc2c(F)cc(-c3nc(N[C@@H]4CCOC[C@H]4O)ncc3Cl)cc2c(C)c1[C@@H](C)O (single isomer, unassigned) [Example 15a]"
7.00 to 8.00,6.00 to 7.00,6.00 to 7.00,"Cc1nc2c(F)cc(-c3nc(N[C@@H]4CCOC[C@H]4O)ncc3Cl)cc2c(C)c1[C@H](C)O (single isomer, unassigned) [Example 15b]"
6.00 to 7.00,6.00 to 7.00,6.00 to 7.00,"O[C@@H]1COCC[C@H]1Nc1ncc(Cl)c(-c2cc(F)c3ncc4c(c3c2)C2CCC(C4)N2)n1 (single isomer, unassigned) [Example 20b]"
6.00 to 7.00,6.00 to 7.00,6.00 to 7.00,"CNC(C)c1cnc2c(F)cc(-c3nc(N[C@@H]4CCOC[C@H]4O)ncc3Cl)cc2c1 (single isomer, unassigned) [Example 32a]"
7.00 to 8.00,7.00 to 8.00,6.00 to 7.00,"CC1Cc2cnc3c(F)cc(-c4nc(N[C@@H]5CCOC[C@H]5O)ncc4Cl)cc3c2CN1 (single isomer, unassigned) [Example 34a]"
7.00 to 8.00,6.00 to 7.00,6.00 to 7.00,"Cc1nc2c(F)cc(-c3nc(N[C@@H]4CCOC[C@H]4O)ncc3Cl)cc2c(Cl)c1C(C)O (single isomer, unassigned) [Example 35a]"
7.00 to 8.00,6.00 to 7.00,6.00 to 7.00,"Cc1nc2c(F)cc(-c3nc(N[C@@H]4CCOC[C@H]4O)ncc3Cl)cc2cc1C(C)NC1CC1 (single isomer, unassigned) [Example 73b]"
7.00 to 8.00,7.00 to 8.00,6.00 to 7.00,"Cc1nc2c(F)cc(-c3nc(N[C@@H]4CCOC[C@H]4O)ncc3F)cc2c(C)c1C(C)O (single isomer, unassigned) [Example 81a]"
7.00 to 8.00,6.00 to 7.00,6.00 to 7.00,"Cc1nc2c(F)cc(-c3nc(N[C@@H]4CCOC[C@H]4O)ncc3F)cc2c(C)c1C(C)O (single isomer, unassigned) [Example 81b]"
7.00 to 8.00,6.00 to 7.00,6.00 to 7.00,"Cc1c(C(C)O)cnc2c(F)cc(-c3nc(N[C@@H]4CCOC[C@H]4O)ncc3Cl)cc12 (single isomer, unassigned) [Example 88a]"
7.00 to 8.00,6.00 to 7.00,6.00 to 7.00,"CC1(C)NCc2c(cnc3c(F)cc(-c4nc(N[C@@H]5CCOC[C@H]5O)ncc4F)cc23)C1O (single isomer, unassigned) [Example 106b]"
7.00 to 8.00,6.00 to 7.00,6.00 to 7.00,"Cc1c(C(C)(C)O)cnc2c(F)cc(-c3nc(N[C@@H]4CCOC[C@H]4O)ncc3Cl)cc12 [Example 7, (3S,4R)-4-((5-chloro-4-(8-fluoro-3-(2-hydroxypropan-2-yl)-4-methylquinolin-6-yl)pyrimidin-2-yl)amino)tetrahydro-2H-pyran-3-ol]"
7.00 to 8.00,7.00 to 8.00,7.00 to 8.00,"O[C@@H]1COCC[C@H]1Nc1ncc(Cl)c(-c2cc(F)c3ncc4c(c3c2)CCNC4)n1 [Example 8, (3S,4R)-4-((5-chloro-4-(7-fluoro-1,2,3,4-tetrahydrobenzo[c][2,7]naphthyridin-9-yl)pyrimidin-2-yl)amino)tetrahydro-2H-pyran-3-ol]"
7.00 to 8.00,6.00 to 7.00,6.00 to 7.00,"CC(C)(O)c1cnc2c(F)cc(-c3nc(N[C@@H]4CCOC[C@H]4O)ncc3Cl)cc2c1Cl [Example 17, (3S,4R)-4-((5-chloro-4-(4-chloro-8-fluoro-3-(2-hydroxypropan-2-yl)quinolin-6-yl)pyrimidin-2-yl)amino)tetrahydro-2H-pyran-3-ol]"
